{"source": "patent US20210038579A1", "about": "“Treatment Of Patients With Classic Fabry Disease” (Amicus Therapeutics, Inc., priority 2018, published 2021)", "test_in_all_cases": "HEK assay: α-Gal A activity in HEK-293 cell lysate with migalastat", "type_in_all_cases": "cell-based", "key": {"[1]": {"biological_target": "T1, α-Gal A mutant form p.Gly373Ser (c.1117 G > A) (Homo sapiens, UniProt P06280, G373S)", "T1 construct": "expressed in transfected cells; host or cells: HEK-293", "T1 sequence (P06280 32-429 G373S)": "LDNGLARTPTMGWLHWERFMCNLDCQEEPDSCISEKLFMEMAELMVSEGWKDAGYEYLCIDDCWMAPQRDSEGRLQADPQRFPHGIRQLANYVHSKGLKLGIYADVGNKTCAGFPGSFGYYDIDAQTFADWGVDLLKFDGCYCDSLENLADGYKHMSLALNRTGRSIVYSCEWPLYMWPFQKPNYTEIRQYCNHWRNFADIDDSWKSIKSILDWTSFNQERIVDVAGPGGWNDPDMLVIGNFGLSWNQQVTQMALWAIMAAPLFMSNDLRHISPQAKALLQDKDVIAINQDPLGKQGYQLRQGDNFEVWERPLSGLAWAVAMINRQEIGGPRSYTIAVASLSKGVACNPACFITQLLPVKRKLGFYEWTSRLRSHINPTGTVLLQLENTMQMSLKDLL", "summary_of_the_method": "(§1)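 HEK-293 cells are transfected transiently with cDNA for each missense or small in-frame indel α-Gal A mutant. They are cultured ±migalastat across 17 nM to 1 mM over 4 to 5 days, after which lysate enzyme is quantified fluorogenically (4-MU-α-Gal) or by immunoblot.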"}, "[2]": {"biological_target": "T2, α-Gal A mutant form p.Arg301Gln (c.902 G > A) (Homo sapiens, UniProt P06280, R301Q)", "T2 construct": "expressed in transfected cells; host or cells: HEK-293", "T2 sequence (P06280 32-429 R301Q)": "T1 sequence (P06280 32-429 G373S) with R270Q, S342G", "summary_of_the_method": "as §1"}, "[3]": {"biological_target": "T3, α-Gal A mutant form p.Pro293Thr (c.877 C > A) (Homo sapiens, UniProt P06280, P293T)", "T3 construct": "expressed in transfected cells; host or cells: HEK-293", "T3 sequence (P06280 32-429 P293T)": "T1 sequence (P06280 32-429 G373S) with P262T, S342G", "summary_of_the_method": "as §1"}, "[4]": {"biological_target": "T4, α-Gal A mutant form p.Asp55Val/Glu57Leu (c.164 A > T; c.170 A > T) (Homo sapiens, UniProt P06280, D55V/Q57L)", "T4 construct": "expressed in transfected cells; host or cells: HEK-293", "T4 sequence (P06280 32-429 D55V/Q57L)": "T1 sequence (P06280 32-429 G373S) with D24V, Q26L, S342G", "summary_of_the_method": "as §1"}, "[5]": {"biological_target": "T5, α-Gal A mutant form p.Met284Thr (c.851 T > C) (Homo sapiens, UniProt P06280, M284T)", "T5 construct": "expressed in transfected cells; host or cells: HEK-293", "T5 sequence (P06280 32-429 M284T)": "T1 sequence (P06280 32-429 G373S) with M253T, S342G", "summary_of_the_method": "as §1"}, "[6]": {"details": "+10 μM migalastat, HEK-293 cell lysate, mean ± SEM, n = 20"}, "[7]": {"details": "HEK293, 10 μM migalastat minus baseline, read-out: Absolute increase at 10 μM (% WT)"}}, "note": "Where a chain is given by its changes, count along the chain named.", "data": [{"smiles": "OC[C@H]1NC[C@H](O)[C@@H](O)[C@H]1O", "note": "[migalastat]", "values": [{"measurement": "α-Gal A activity at 10 μM (fold over baseline)", "setting": "[1]; 10 μM migalastat", "value": 3.32, "unit": "fold over baseline"}, {"measurement": "+Migalastat α-Gal A activity", "setting": "[1]; [6]", "value": "5128 ± 288", "unit": "nmol/mg/h"}, {"measurement": "+Migalastat α-Gal A activity % WT", "setting": "[1]; [6]", "value": "15.7 ± 0.8", "unit": "% WT"}, {"measurement": "activation at 10 µM", "setting": "[1]; [7]", "value": 10.9, "unit": "%"}, {"measurement": "α-Gal A activity at 10 μM (fold over baseline)", "setting": "[2]; 10 μM migalastat", "value": 8.12, "unit": "fold over baseline"}, {"measurement": "+Migalastat α-Gal A activity", "setting": "[2]; [6]", "value": "15547 ± 353", "unit": "nmol/mg/h"}, {"measurement": "+Migalastat α-Gal A activity % WT", "setting": "[2]; [6]", "value": "44.5 ± 1.0", "unit": "% WT"}, {"measurement": "activation at 10 µM", "setting": "[2]; [7]", "value": 39, "unit": "%"}, {"measurement": "α-Gal A activity at 10 μM (fold over baseline)", "setting": "[3]; 10 μM migalastat", "value": 19.60, "unit": "fold over baseline"}, {"measurement": "+Migalastat α-Gal A activity", "setting": "[3]; [6]", "value": "4488 ± 327", "unit": "nmol/mg/h"}, {"measurement": "+Migalastat α-Gal A activity % WT", "setting": "[3]; [6]", "value": "13.3 ± 1.1", "unit": "% WT"}, {"measurement": "activation at 10 µM", "setting": "[3]; [7]", "value": 12.7, "unit": "%"}, {"measurement": "activation at 10 µM", "setting": "[4]; 10 μM migalastat minus baseline, read-out: Absolute increase at 10 μM (% WT)", "value": 8, "unit": "%"}, {"measurement": "+Migalastat α-Gal A activity", "setting": "[4]; [6]", "value": "2526 ± 287", "unit": "nmol/mg/h"}, {"measurement": "+Migalastat α-Gal A activity % WT", "setting": "[4]; [6]", "value": "8.0 ± 0.5", "unit": "% WT"}, {"measurement": "α-Gal A activity at 10 μM (fold over baseline)", "setting": "[5]; 10 μM migalastat", "value": 8.33, "unit": "fold over baseline"}, {"measurement": "+Migalastat α-Gal A activity", "setting": "[5]; [6]", "value": "5050 ± 268", "unit": "nmol/mg/h"}, {"measurement": "+Migalastat α-Gal A activity % WT", "setting": "[5]; [6]", "value": "14.3 ± 0.6", "unit": "% WT"}, {"measurement": "activation at 10 µM", "setting": "[5]; [7]", "value": 12.6, "unit": "%"}]}]}
